Assay results: patent publication US8871754B2, “Compounds and compositions for the treatment of parasitic diseases” (IRM LLC, priority 2012, dated 2014)

Test system: P. falciparum (NF54 or 3D7 strain) in infected human erythrocytes
Experiment: Assay for P. falciparum proliferation in infected human blood cells (SYBR Green)
Format: cell-based
Details: Plasmodium falciparum, Erythrocyte; NF54 or 3D7 strain, 72 hours, SYBR Green fluorescence; read-out: EC50 (nM), inhibitory efficacy in delaying P. falciparum proliferation in infected human blood cells
Description: Assay for P. falciparum Proliferation in Infected Human Blood Cells
Compounds of the invention can be assayed to measure their capacity to inhibit proliferation of P. falciparum parasitemia in infected red blood cells. This parasite proliferation assay measures the increase in parasite DNA content using a DNA intercalating dye, SYBR Green® (INVITROGEN®) which has a high affinity for double stranded DNA.
NF54 or 3D7 P. falciparum strain is grown in complete culturing media until parasitemia reaches 3% to 8% with O+ human erythrocytes. […] 20 μl of screening media is dispensed into 384 well assay plates. 50 nl of compounds of the invention (in DMSO), including antimalarial controls (mefloquine, pyrimethamine and artemisinin), are then transferred into the assay plates, as well as DMSO alone to serve as a negative control for inhibition. Then 30 μl of a suspension of a NF54 or 3D7 P. falciparum infected erythrocytes in screening media is dispensed into the assay plates such that the final hematocrit is 2.5% with a final parasitemia of 0.3%. The plates are placed in a 37° C. incubator for 72 hours in a low oxygen environment containing 93% N2, 4% CO2, and 3% O2 gas mixture. 10 μl of lysis buffer (saponin, triton-X, EDTA) containing a 10× solution of SYBR Green I® in RPMI media is dispensed into the plates. The plates are lidded and kept at room temperature overnight for the lysis of the infected red blood cells. The fluorescence intensity is measured (excitation […], emission 530 nm) using the Envision™ system (Perkin Elmer). The percentage inhibition of 50%, […], is calculated for each compound.

Row | SMILES | EC50 [nM]
1 | C[C@@H](N)C(=O)Nc1ccc(-c2cnn3ccc(C(=O)N(C)c4ccc(C#N)cc4)cc23)cc1 [Example 44, (R)-3-(4-(2-aminopropanamido)phenyl)-N-(4-cyanophenyl)-N-methylpyrazolo[1,5-a]pyridine-5-carboxamide] | 1
2 | CC(C)[C@H](N)C(=O)Nc1ccc(-c2cnn3ccc(C(=O)N(C)c4ccc(C#N)cc4)cc23)cc1 [Example 45, (S)-3-(4-(2-amino-3-methylbutanamido)phenyl)-N-(4-cyanophenyl)-N-methylpyrazolo[1,5-a]pyridine-5-carboxamide] | 16
3 | CN(C(=O)c1ccn2ncc(-c3ccc(NC(=O)[C@@H](N)C4CCCCC4)cc3)c2c1)c1ccc(C#N)cc1 [Example 46, (S)-3-(4-(2-amino-2-cyclohexylacetamido)phenyl)-N-(4-cyanophenyl)-N-methylpyrazolo[1,5-a]pyridine-5-carboxamide] | 18
4 | CN(C(=O)Nc1ccc(F)cc1)c1ccn2ncc(-c3ccc(C(F)(F)F)cc3)c2c1 [Example 47, 3-(4-fluorophenyl)-1-methyl-1-(3-(4-(trifluoromethyl)phenyl)pyrazolo[1,5-a]pyridin-5-yl)urea] | > 9000
5 | CN(C(=O)c1ccc(C(C)(F)F)nc1)c1ccn2ncc(-c3ccc(C(F)(F)F)cc3)c2c1 [Example 48, 6-(1,1-difluoroethyl)-N-methyl-N-(3-(4-(trifluoromethyl)phenyl)pyrazolo[1,5-a]pyridin-5-yl)nicotinamide] | 288
6 | CN(C(=O)c1ccc(C2CC2)nc1)c1ccn2ncc(-c3ccc(C(F)(F)F)cc3)c2c1 [Example 49, 6-cyclopropyl-N-methyl-N-(3-(4-(trifluoromethyl)phenyl)pyrazolo[1,5-a]pyridin-5-yl)nicotinamide] | 2290
7 | CN(C(=O)c1ccc(C2CC2)cc1)c1ccn2ncc(-c3ccc(C(F)(F)F)cc3)c2c1 [Example 50, 4-cyclopropyl-N-methyl-N-(3-(4-(trifluoromethyl)phenyl)pyrazolo[1,5-a]pyridin-5-yl)benzamide] | 3850
8 | CN(C(=O)c1ccc(F)cn1)c1ccn2ncc(-c3ccc(C(F)(F)F)cc3)c2c1 [Example 51, 5-fluoro-N-methyl-N-(3-(4-(trifluoromethyl)phenyl)pyrazolo[1,5-a]pyridin-5-yl)picolinamide] | 60
9 | CN(C(=O)c1ccc(S(C)(=O)=O)cc1)c1ccn2ncc(-c3ccc(C(F)(F)F)cc3)c2c1 [Example 52, N-methyl-4-(methylsulfonyl)-N-(3-(4-(trifluoromethyl)phenyl)pyrazolo[1,5-a]pyridin-5-yl)benzamide] | 13
10 | CN(C(=O)c1ccn2ncc(-c3cnc4[nH]ccc4c3)c2c1)c1ccc(C#N)cn1 [Example 53, N-(5-cyanopyridin-2-yl)-N-methyl-3-(1H-pyrrolo[2,3-b]pyridin-5-yl)pyrazolo[1,5-a]pyridine-5-carboxamide] | 1
11 | CN(C(=O)c1ccc(Cl)cc1)c1ccn2ncc(-c3ccc(C(F)(F)F)cc3)c2c1 [Example 55, 4-chloro-N-methyl-N-(3-(4-(trifluoromethyl)phenyl)pyrazolo[1,5-a]pyridin-5-yl)benzamide] | 32
12 | CN(C(=O)c1ccc(F)cc1)c1ccn2ncc(-c3ccc(C(N)=O)cc3)c2c1 [Example 56, N-(3-(4-carbamoylphenyl)pyrazolo[1,5-a]pyridin-5-yl)-4-fluoro-N-methylbenzamide] | 8
13 | CNc1nnc(-c2ccc(-c3cnn4ccc(N(C)C(=O)c5ccc(F)cc5)cc34)cc2)s1 [Example 57, 4-fluoro-N-methyl-N-(3-(4-(5-(methylamino)-1,3,4-thiadiazol-2-yl)phenyl)pyrazolo[1,5-a]pyridin-5-yl)benzamide] | 4
14 | CN(C(=O)c1ccn2ncc(-c3cnc4[nH]ccc4c3)c2c1)c1ccc(S(C)(=O)=O)cn1 [Example 58, N-methyl-N-(5-(methylsulfonyl)pyridin-2-yl)-3-(1H-pyrrolo[2,3-b]pyridin-5-yl)pyrazolo[1,5-a]pyridine-5-carboxamide] | 30
15 | Cc1ccc(-c2cnn3ccc(C(=O)N(C)c4ccc(C#N)cn4)cc23)nc1 [Example 59, N-(5-cyanopyridin-2-yl)-N-methyl-3-(5-methylpyridin-2-yl)pyrazolo[1,5-a]pyridine-5-carboxamide] | 228
16 | COc1ccc(-c2cnn3ccc(C(=O)N(C)c4ccc(C#N)cn4)cc23)nc1 [Example 60, N-(5-cyanopyridin-2-yl)-3-(5-methoxypyridin-2-yl)-N-methylpyrazolo[1,5-a]pyridine-5-carboxamide] | 683

Row | SMILES | EC50 [nM]
17 | CN(C(=O)c1ccn2ncc(-c3ccc(C(N)=O)cn3)c2c1)c1ccc(C#N)cn1 [Example 61, 3-(5-carbamoylpyridin-2-yl)-N-(5-cyanopyridin-2-yl)-N-methylpyrazolo[1,5-a]pyridine-5-carboxamide] | 20
18 | Cc1ccc(N(C)C(=O)c2ccn3ncc(-c4ccc(C(N)=O)cc4)c3c2)nc1 [Example 63, 3-(4-carbamoylphenyl)-N-methyl-N-(5-methylpyridin-2-yl)pyrazolo[1,5-a]pyridine-5-carboxamide] | 6
19 | CNC(=O)c1ccc(-c2cnn3ccc(C(=O)N(C)c4ccc(F)cc4)cc23)cc1 [Example 64, N-(4-fluorophenyl)-N-methyl-3-(4-(methylcarbamoyl)phenyl)pyrazolo[1,5-a]pyridine-5-carboxamide] | 20
20 | Cc1ccc(N(C)C(C)c2ccn3ncc(-c4ccc(C(N)=O)cc4)c3c2)nc1 (centres unmarked) [Example 65, 4-(5-(1-(methyl(5-methylpyridin-2-yl)amino)ethyl)pyrazolo[1,5-a]pyridin-3-yl)benzamide] | 504
21 | CC(c1ccn2ncc(-c3ccc(C(N)=O)cc3)c2c1)N1C(=O)COc2cc(F)ccc21 (centres unmarked) [Example 66, 4-(5-(1-(7-fluoro-3-oxo-2H-benzo[b][1,4]oxazin-4(3H)-yl)ethyl)pyrazolo[1,5-a]pyridin-3-yl)benzamide] | 49
22 | CC(=O)Nc1ccc(-c2cnn3ccc(C(C)N(C)c4ccc(C)cn4)cc23)cc1 (centres unmarked) [Example 68, N-(4-(5-(1-(methyl(5-methylpyridin-2-yl)amino)ethyl)pyrazolo[1,5-a]pyridin-3-yl)phenyl)acetamide] | 6750
23 | CC(=O)Nc1ccc(-c2cnn3ccc(C(=O)N(C)c4ccc(C#N)cn4)cc23)cc1 [Example 69, 3-(4-acetamidophenyl)-N-(5-cyanopyridin-2-yl)-N-methylpyrazolo[1,5-a]pyridine-5-carboxamide] | 13
24 | NC(=O)c1ccc(-c2cnn3ccc(C(=O)N4CCOc5cc(F)ccc54)cc23)cc1 [Example 71, 4-(5-(7-fluoro-3,4-dihydro-2H-benzo[b][1,4]oxazine-4-carbonyl)pyrazolo[1,5-a]pyridin-3-yl)benzamide] | 3
25 | CC1COc2cc(F)ccc2N1C(=O)c1ccn2ncc(-c3ccc(C(N)=O)cc3)c2c1 (centres unmarked) [Example 72, 4-(5-(7-fluoro-3-methyl-3,4-dihydro-2H-benzo[b][1,4]oxazine-4-carbonyl)pyrazolo[1,5-a]pyridin-3-yl)benzamide] | 5
26 | CNC(=O)c1ccc(-c2cnn3ccc(C(=O)N4CCOc5cc(F)ccc54)cc23)cc1 [Example 73, 4-(5-(7-fluoro-3,4-dihydro-2H-benzo[b][1,4]oxazine-4-carbonyl)pyrazolo[1,5-a]pyridin-3-yl)-N-methylbenzamide] | > 10000
27 | CNC(=O)c1ccc(-c2cnn3ccc(C(=O)N4c5ccc(F)cc5OCC4C)cc23)cc1 (centres unmarked) [Example 74, 4-(5-(7-fluoro-3-methyl-3,4-dihydro-2H-benzo[b][1,4]oxazine-4-carbonyl)pyrazolo[1,5-a]pyridin-3-yl)-N-methylbenzamide] | 52
28 | CNC(=O)c1ccc(-c2cnn3ccc(C(=O)N(c4ccc(C#N)cn4)C4COC4)cc23)cc1 [Example 76, N-(5-cyanopyridin-2-yl)-3-(4-(methylcarbamoyl)phenyl)-N-(oxetan-3-yl)pyrazolo[1,5-a]pyridine-5-carboxamide] | 82
29 | CC(Cn1cccn1)N(C(=O)c1ccn2ncc(-c3ccc(C(N)=O)cc3)c2c1)c1ccc(C#N)cn1 (centres unmarked) [Example 77, N-(1-(1H-pyrazol-1-yl)propan-2-yl)-3-(4-carbamoylphenyl)-N-(5-cyanopyridin-2-yl)pyrazolo[1,5-a]pyridine-5-carboxamide] | 146
30 | CN(C(=O)c1ccn2ncc(-c3cnc(N)c(F)c3)c2c1)c1ccc(C#N)cc1 [Example 79, 3-(6-amino-5-fluoropyridin-3-yl)-N-(4-cyanophenyl)-N-methylpyrazolo[1,5-a]pyridine-5-carboxamide] | 7
31 | Cc1cc(-c2cnn3ccc(C(=O)N(C)c4ccc(C#N)cc4)cc23)cc(C)c1N [Example 80, 3-(4-amino-3,5-dimethylphenyl)-N-(4-cyanophenyl)-N-methylpyrazolo[1,5-a]pyridine-5-carboxamide] | 824
32 | Cc1cc(-c2cnn3ccc(C(=O)N(C)c4ccc(C#N)cc4)cc23)cnc1N [Example 81, 3-(6-amino-5-methylpyridin-3-yl)-N-(4-cyanophenyl)-N-methylpyrazolo[1,5-a]pyridine-5-carboxamide] | 36
